Results published in patent publication US20250136583A1, “NOVEL SALT FORMS OF ISOCHROMAN-IMIDAZOLE STRUCTURED ALPHA-2A ADRENOCEPTOR AGONIST” (ORION CORPORATION, priority 2022, published 2025).
Where a name gives a salt, the structure may show the parent alone.

Tests used:
alpha2A receptor = target: T1, alpha2A receptor (Homo sapiens, UniProt P08913); conditions: background, WO 2013/150173; cited from earlier work
T1 sequence (P08913 1-465): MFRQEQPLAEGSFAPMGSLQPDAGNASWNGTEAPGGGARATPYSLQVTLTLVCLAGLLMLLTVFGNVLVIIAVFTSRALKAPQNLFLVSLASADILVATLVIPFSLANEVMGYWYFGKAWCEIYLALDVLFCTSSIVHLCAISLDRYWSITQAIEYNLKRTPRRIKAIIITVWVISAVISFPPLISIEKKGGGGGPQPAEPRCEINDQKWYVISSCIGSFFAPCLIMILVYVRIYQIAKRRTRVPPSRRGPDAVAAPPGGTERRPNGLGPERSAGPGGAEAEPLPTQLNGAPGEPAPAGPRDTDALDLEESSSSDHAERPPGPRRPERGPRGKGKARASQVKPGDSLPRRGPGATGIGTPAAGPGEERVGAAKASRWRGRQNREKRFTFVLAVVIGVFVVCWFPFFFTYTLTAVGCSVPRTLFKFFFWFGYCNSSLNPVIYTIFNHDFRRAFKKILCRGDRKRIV

[1] = Physical stability of the salts (storage at elevated temperature and relative humidity, re-analysis by XRPD); type: physicochemical; conditions: solids exposed for 2 or 3 weeks at 40° C. and 70-80% relative humidity; for Physical stability: re-analyzed by XRPD
Method: XRPD measurements were performed with the X-ray powder diffractometer Bruker D8 Advance at room temperature, using a copper filled X-ray tube (40 kV×40 mA) as the X-ray source, CuKα (λ=1.5418 Å), a 0.6 mm divergence slit, 2.5° Soller slits on both the primary and secondary beams and the 1-dimensional LynxEye detector (with aperture angle of 2.91593°). Data collection was done in the range of 3.8-33° 2θ with 0.02° increments, at a scan speed of 0.3°/s.
A stability test was carried out for all crystalline salt forms resulted from the salt screen by exposing the solids for 2 or 3 weeks at 40° C. and 70-80% relative humidity. After exposure, the solids were re-analyzed by XRPD, followed by physical stability assessment.

[2] = Chemical stability of the salts (stress at 60° C. and 75% relative humidity, purity by UHPLC); type: physicochemical
Method: The purity analyses were performed using Agilent UHPLC equipment with PDA/DAD detector at 210 nm wavelength and reverse phase liquid chromatography column Acquity UPLC HSS T3, 100×3.0 mm, 1.8 μm (Waters). The chromatography was performed with gradient run using acetonitrile and phosphate buffer (pH 3.0) as eluents.
The chemical stability of various salts of compound (I) was determined by stressing the salts for 1 and 14 days at 60° C. and 75% relative humidity. The unstressed sample was used as an reference. The purity of the samples were analyzed using UHPLC, and the purity difference between the stressed and reference was calculated.

SMILES	Activity on adrenergic alpha2 receptors, especially alpha2A receptor (alpha2A receptor)	Form after stability ([1]; XRPD)	Physical stability [1]	Physical stability ([1]; listed as glutaric acid)	Purity (%) of 1 day stress samples ([2]; 1 day at 60° C. and 75% relative humidity, UHPLC) [%]	Difference between reference and 1 day stressed sample ([2]; 1 day at 60° C. and 75% relative humidity, purity difference, in %)	Purity (%) of 14 day stress samples ([2]; 14 days at 60° C. and 75% relative humidity, UHPLC) [%]	Difference between reference and 14 day stressed sample ([2]; 14 days at 60° C. and 75% relative humidity, purity difference, in %)	Purity (%) of reference ([2]; unstressed sample, UHPLC) [%]
COc1cccc2c1CCOC2C1=NCCN1 (stereo not drawn) [Tasipimidine, 2-(5-methoxyisochroman-1-yl)-4,5-dihydro-1H-imidazole]	agonistic activities	–	–	–	–	–	–	–	–
COc1cccc2c1CCOC2C1=NCCN1 (stereo not drawn) [Glutaric acid salt Form 1, 2-(5-methoxyisochroman-1-yl)-4,5-dihydro-1H-imidazole]	–	Form 1	Stable	remained stable	78.7	17.7	2.0	94.4	96.4
